# Test results published in patent US12290516B2, “Heterocyclic compounds as EphA4 inhibitors” (The Hong Kong University of Science and Technology, priority 2017, dated 2025).
# What was measured:
# EphA4 = assay: ephrin-A1-induced EphA4 clustering assay in cultured hippocampal neurons; type: cell-based; conditions: dose of 50 μM
# Description: FIG. 1. Inhibitory effect of small molecule compounds on EphA4 signaling. Inhibitory activity of 22 selected FDA-approved drugs in ephrin-A1-induced EphA4 clusters in cultured hippocampal neurons. n=4 neuronal cell cultures; *p<0.05 vs. Cont; unpaired Student's t-test.
# The inhibitory activity of the 22 drugs listed in Table 1 was examined using an ephrin-A1-induced EphA4 clustering assay in cultured hippocampal neurons.
# [1] = target: T1, extracellular domain of mouse EphA4 (interaction with ephrin-A1) (Mus musculus, UniProt Q03137); assay: Dose-response ELISA of the EphA4/ephrin-A1 interaction; type: binding; conditions: read-out: IC50, inhibition of interaction between extracellular domain of mouse EphA4 and ephrin-A1
# T1 construct: the extracellular domain of mouse EphA4
# Description: FIG. 3. […] Dose-response curve of nilotinib against the interaction of mouse EphA4 with ephrin-A1.
# Nilotinib is a kinase inhibitor that targets the following kinases: BCR-ABL, KIT, LCK, EPHA3, EPHA8, DDR1, DDR2, PDGFRB, MAPK11, and ZAK. Nilotinib is predicted to form hydrogen bonds with Q70 in the D-E loop and T104. It also has hydrophobic interactions with F154, V157, 1163, L166, A193, and V195.
# T1 sequence (Q03137 20-547 limits assumed): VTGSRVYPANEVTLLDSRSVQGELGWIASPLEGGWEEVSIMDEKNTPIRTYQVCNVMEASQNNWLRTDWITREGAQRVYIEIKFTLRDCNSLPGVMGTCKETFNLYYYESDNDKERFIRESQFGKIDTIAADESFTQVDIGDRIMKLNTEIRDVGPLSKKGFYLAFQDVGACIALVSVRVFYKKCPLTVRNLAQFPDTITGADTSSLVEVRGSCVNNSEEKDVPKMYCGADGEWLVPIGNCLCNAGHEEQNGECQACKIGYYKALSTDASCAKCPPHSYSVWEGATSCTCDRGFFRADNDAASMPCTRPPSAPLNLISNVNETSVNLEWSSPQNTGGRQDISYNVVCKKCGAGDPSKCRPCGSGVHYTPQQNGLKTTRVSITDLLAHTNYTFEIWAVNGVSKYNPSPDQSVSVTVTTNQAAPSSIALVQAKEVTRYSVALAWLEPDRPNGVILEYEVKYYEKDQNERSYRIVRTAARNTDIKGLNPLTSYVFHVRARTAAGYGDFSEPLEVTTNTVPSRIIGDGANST
IC50 [1] [µM],Compound,inhibition of ephrin-A1-induced EphA4 clustering (EphA4) [%]
,CN1CCC(=C2c3ccccc3C=Cc3ccccc32)CC1 [Cyproheptadine],30
70.7,Cc1cn(-c2cc(NC(=O)c3ccc(C)c(Nc4nccc(-c5cccnc5)n4)c3)cc(C(F)(F)F)c2)cn1 [Nilotinib],30
,C[C@]12CC[C@H](O)CC1=CC[C@@H]1[C@@H]2CC[C@]2(C)C(c3cccnc3)=CC[C@@H]12 [abiraterone],30
,Retapamulin,30
